Laboratory results from paper PMC12701685, “Support Vector Machine Identification of Small Molecule Binders to an Understudied Allosteric Site of SARS‐CoV‐2 Mpro for Next‐Generation PROTAC‐Based Therapeutics” (Archiv Der Pharmazie, 2025).
Like-named read-outs stand apart in the source and are kept apart here.

Experiments:
[1] = test system: SARS‐CoV‐2 replication in Vero E6 cells; details: cited from earlier work
[2] = molecular target: T1, SARS‐CoV‐2 Mpro (Severe acute respiratory syndrome coronavirus 2, UniProt P0DTD1); assay: Microscale thermophoresis (MST) binding check and binding affinity; details: for RA (Response Amplitude): MST binding affinity experiment, RA ≥ 1.5 indicative of binding; for Kd: MST, labeled Mpro 35 nM, 16 1:1 serial dilutions, two independent experiments, read-out: K d ± K d confidence
[3] = molecular target: T1, SARS‐CoV‐2 Mpro; assay: FRET peptide substrate enzymatic assay; type: biochemical; details: compound 20 µM; for remaining activity at 20 µM: enzyme 75 nM, substrate 25 µM, read-out: Residual activity (%)
Method: The three compounds identified as binders in the MST assay were tested for their inhibitory properties against SARS‐CoV‐2 Mpro at a 20 µM concentration (see Section 4 for details).
Inhibitory activities of the compounds against SARS‐CoV‐2 Mpro were determined as described previously by cleavage of a fluorescence resonance energy transfer (FRET) peptide substrate (Dabcyl‐[…]‐Edans), purchased from Genescript (New Jersey, USA).
Fluorescence measurements were carried out in white flat‐bottom 96‐well plates (Greiner Bio‐One, Kremsmünster, Upper Austria) using a Tecan Spark 10M plate reader (Tecan Group Ltd., Männedorf, Switzerland). Each well contained a final volume of 200 µL, consisting of 180 µL assay buffer (20 mM TRIS‐HCl pH 7.5, 20 mM NaCl, 0.1 mM EDTA, 1 mM DTT), 5 µL enzyme solution (final concentration 75 nM), 10 µL inhibitor in DMSO (final concentration 20 µM) or pure DMSO as a negative control, and 5 µL substrate solution in DMSO (final concentration 25 µM). The reaction was monitored for 10 min at 25°C, with fluorescence readings taken at 30‐s intervals. The substrate was excited at 335 nm, and fluorescence emission was recorded at 493 nm. The remaining enzymatic activity was determined by comparing the substrate hydrolysis rate in reaction mixtures containing the inhibitors to that of the DMSO control. Only the first 5 min of the fluorescence curves (Supporting Information S1: Figure S3) were used for the calculation to obtain the linear part.

[4] = molecular target: T1, SARS‐CoV‐2 Mpro; details: non‐covalent inhibitors; cited from earlier work
[5] = test system: SARS-CoV-1; details: cited from earlier work
[6] = test system: virus‐infected VeroE6 cells; details: plaque reduction; cited from earlier work
[7] = test system: virus‐infected VeroE6 cells; details: cytopathic effect (CPE) inhibition; cited from earlier work
[8] = test system: infected cells; details: cited from earlier work

Compound | RA (Response Amplitude) [2] | Kd [2] [µM] | Effect on enzyme activity (in words) [3] | remaining activity at 20 µM [3] [%] | further results
O=C(NC1CCNCC1)c1n[nH]cc1NC(=O)c1c(Cl)cccc1Cl [AT7519, N‐(4‐piperidinyl)‐4‐(2,6‐dichlorobenzoylamino)‐1H‐ Pyrazole‐3‐Carboxamide] | – | – | – | – | EC50 [1]: 25.2 µM
Cc1ccc(C(=O)NCCCNC(=O)c2ccccn2)cc1C [compound 7] | 3.4 | 2.8 ± 0.9 | no effect on the catalytic activity | 105 | –
CCOc1cccc(-c2nn3c(-c4cccnc4)nnc3s2)c1 [compound 8] | 4.7 | 23.9 ± 7.4 | no effect on the catalytic activity | 101 | –
Cc1cc2ncn(S(=O)(=O)c3ccc(S(N)(=O)=O)cc3)c2cc1C [compound 9] | 2.7 | 39 ± 23.4 | no effect on the catalytic activity | 106 | –
O=C(c1c[nH]c(=O)[nH]c1=O)N1CCN(c2ccc(Cl)c(Cl)c2)CC1 [compound 23] | – | – | – | – | IC50 [4]: 5.1 ± 0.63 µM
CCC(C)(C)NC(=O)[C@@H](c1ccn(C)c1)N(C(=O)Cn1nnc2ccccc21)c1ccc(NC(C)=O)cc1 [compound 42] | – | – | – | – | IC50 [5]: 6.2 µM
O=C(Cn1nnc2ccccc21)N(Cc1cccc(Cl)c1)c1ccc(-c2c[nH]cn2)cc1 [compound 47] | – | – | – | – | EC50 [6]: 0.56 µM; EC50 [7]: 0.5 µM
O=C(NCc1cccs1)[C@@H]1CN(C(=O)c2cccnc2)CCN1c1ccc(Cl)c(Cl)c1 [compound 51] | – | – | – | – | IC50 [4]: ~0.4 µM; EC50 [8]: ~1.1 µM
